Experimental data from patent publication US20150105252A1, “SUBSTITUTED PYRAZOLES AS HERBICIDES” (E I DU PONT DE NEMOURS AND COMPANY, priority 2013, published 2015).

Tests used:
pigweed [1] = test: Test A preemergence; assay type: in vivo, Amaranthus retroflexus
How it was run: (§1)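 Seeds were sown in a loam soil–sand blend and given a directed soil spray preemergence; postemergence plants at 2–10 cm, one- to two-leaf stage, were sprayed with compound in non-phytotoxic solvent with surfactant. After about 10 days in a greenhouse, injury was visually rated against untreated controls (0 = no effect, 100 = complete control).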

morningglory = test: Test A postemergence; assay type: in vivo, Ipomoea spp.
How it was run: as §1

pigweed [2] = test: Test A postemergence; assay type: in vivo, Amaranthus retroflexus
How it was run: as §1

wheat [3] = test: Test A postemergence; assay type: in vivo, Triticum aestivum
How it was run: as §1

barnyardgrass = test: Test B flood; assay type: in vivo, Echinochloa crus-galli; details: 250 g ai/ha, visual rating on 0 to 100 scale (0 no effect, 100 complete control), 13 to 15 days
How it was run: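 Visual ratings on a 0–100 scale, where 0 means no effect and 100 means complete control, were assigned by comparison with controls 13 to 15 days after treatment. Compounds went into paddy water over 2-leaf plants flooded to 3 cm.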

crabgrass, large = test: Test C preemergence; assay type: in vivo, Digitaria sanguinalis; details: for Plant response rating (scale of 0 to 100), Crabgrass, Large: 250 g ai/ha
How it was run: (§2)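 Greenhouse pot test: preemergence application onto freshly seeded loam/sand mix, postemergence application onto seedlings (1–4 leaves, 2–18 cm) in peat-vermiculite substrate. Responses scored visually 13 to 15 days later relative to controls, where 0 means no effect and 100 means complete control; a dash indicates no result.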

foxtail, giant = test: Test C preemergence; assay type: in vivo, Setaria faberii; details: for Plant response rating (scale of 0 to 100), Foxtail, Giant: 250 g ai/ha
How it was run: as §2

wheat [4] = test: Test C postemergence; assay type: in vivo, Triticum aestivum; details: for Plant response rating (scale of 0 to 100), Wheat / Plant response rating (scale of 0 to 100 where 0 is no effect and 100 is complete control), Wheat: Postemergence; for Plant response rating (scale of 0 to 100), Wheat: 16 g ai/ha; for Wheat plant response rating / Plant response rating, Wheat: postemergence; for Wheat plant response rating: 62 g ai/ha, scale 0 to 100; for Plant response rating (scale of 0 to 100 where 0 is no effect and 100 is complete control), Wheat: 31 g ai/ha, visually evaluated after 13 to 15 days
Description: (§3) Seeds of plant species selected from blackgrass (Alopecurus myosuroides), ryegrass, Italian (Italian ryegrass, Lolium multiflorum), wheat (winter wheat, Triticum aestivum), galium (catchweed bedstraw, Galium aparine), corn (Zea mays), crabgrass, large (large crabgrass, Digitaria sanguinalis), foxtail, giant (giant foxtail, Setaria faberii), johnsongrass (Sorghum halepense), lambsquarters (Chenopodium album), morningglory (Ipomoea coccinea), nutsedge, yellow (yellow nutsedge, Cyperus esculentus), pigweed (redroot pigweed, Amaranthus retroflexus), ragweed (common ragweed, Ambrosia elation), soybean (Glycine max), barnyardgrass (Echinochloa crus-galli), oilseed rape (Brassica napus), waterhemp (common waterhemp, Amaranthus rudis), oat, wild (wild oat, Avena fatua), kochia (Kochia scoparia), Surinam grass (Brachiaria decumbens), foxtail, green (green foxtail, Setaria viridis), goosegrass (Eleusine indica), bromegrass, downy (downy bromegrass, Bromus tectorum), nightshade (eastern black nightshade, Solanum ptycanthum), cocklebur (common cocklebur, Xanthium strumarium), cupgrass, woolly (woolly cupgrass, Eriochloa villosa), bermudagrass (Cynodon dactylon), sunflower, (common oilseed sunflower, Helianthus annuus), Russian thistle (Salsola kali), and velvetleaf (Abutilon theophrasti) were planted into a blend of loam soil and sand and treated preemergence with test chemicals formulated in a non-phytotoxic solvent mixture which included a surfactant.
(§4) At the same time, plants selected from these crop and weed species and also chickweed (common chickweed, Stellaria media), canarygrass (littleseed canarygrass, Phalaris minor), and deadnettle (henbit deadnettle, Lamium amplexicaule), were planted in pots containing Redi-Earth® planting medium (Scotts Company, 14111 Scottslawn Road, Marysville, Ohio 43041) comprising spaghnum peat moss, vermiculite, wetting agent and starter nutrients and treated with postemergence applications of test chemicals formulated in the same manner. Plants ranged in height from 2 to 18 cm (1- to 4-leaf stage) for postemergence treatments. Treated plants and controls were maintained in a greenhouse for 13 to 15 days, after which time all species were compared to controls and visually evaluated. Plant response ratings, summarized in Table C, are based on a scale of 0 to 100 where 0 is no effect and 100 is complete control. A dash (-) response means no test result.

galium = test: Test C postemergence; assay type: in vivo, Galium aparine; details: for Plant response rating (scale of 0 to 100), Galium: 16 g ai/ha; for Galium plant response rating: scale 0 to 100; for Plant response rating (scale of 0 to 100 where 0 is no effect and 100 is complete control), Galium: visually evaluated after 13 to 15 days
Description: as §3, §4

corn = test: Test C postemergence; assay type: in vivo, Zea mays; details: for Plant response rating (scale of 0 to 100), Corn: 16 g ai/ha; for Corn plant response rating: scale 0 to 100; for Plant response rating (scale of 0 to 100 where 0 is no effect and 100 is complete control), Corn: visually evaluated after 13 to 15 days
How it was run: as §2

[5] = Preemergence, 500 g ai/ha, 0 to 100 scale, 0 no effect, 100 complete control
[6] = preemergence, 125 g ai/ha, visual injury, 0 to 100 scale, approx. 10 days
[7] = Postemergence, 500 g ai/ha, visual rating after approx. 10 days, 0 to 100 scale (0 no effect, 100 complete control)
[8] = postemergence, 125 g ai/ha, about 10 days, visual rating on 0 to 100 scale (0 no effect, 100 complete control)
[9] = Preemergence, 16 g ai/ha, scale 0 to 100
[10] = preemergence, 31 g ai/ha, scale 0 to 100 (0 no effect, 100 complete control), 13 to 15 days
[11] = preemergence, 62 g ai/ha, 13 to 15 days, scale 0 to 100, 0 = no effect, 100 = complete control
[12] = preemergence, 125 g ai/ha, scale 0 to 100, 0 is no effect, 100 is complete control
[13] = 125 g ai/ha, scale 0 to 100, 0 no effect, 100 complete control
[14] = postemergence, 125 g ai/ha, scale 0 to 100, 0 no effect, 100 complete control
[15] = 250 g ai/ha, scale 0 to 100 (0 no effect, 100 complete control)
[16] = postemergence, 250 g ai/ha, scale 0 to 100 (0 no effect, 100 complete control)
[17] = preemergence, 31 g ai/ha, visual rating, scale 0 to 100 (0 no effect, 100 complete control), 13 to 15 days
[18] = preemergence, 62 g ai/ha, scale 0 to 100 (0 no effect, 100 complete control), 13 to 15 days

Structure (SMILES) | Pigweed plant response rating (pigweed [1]; [5]) | Pigweed plant response rating (pigweed [1]; [6]) | Morningglory plant response rating (morningglory; [7]) | Morningglory plant response rating (morningglory; [8]) | Pigweed plant response rating (pigweed [2]; [7]) | Pigweed plant response rating (pigweed [2]; [8]) | Wheat plant response rating (wheat [3]; [7]) | Wheat plant response rating (wheat [3]; [8]) | Plant response rating, Barnyardgrass (barnyardgrass) | Crabgrass, Large plant response rating (crabgrass, large; [10]) | Plant response rating, Crabgrass, Large (crabgrass, large; [11]) | Crabgrass, Large plant response rating (crabgrass, large; [12]) | Foxtail, Giant plant response rating (foxtail, giant; [10]) | Foxtail, Giant plant response rating (foxtail, giant; [12]) | Wheat plant response rating (wheat [4]) | Plant response rating, Wheat (wheat [4]; [13]) | Galium plant response rating (galium; postemergence, 62 g ai/ha) | Plant response rating, Galium (galium; [14]) | Corn plant response rating (corn; postemergence, 62 g ai/ha) | Plant response rating, Corn (corn; [14]) | further results
CCCNC(=O)c1cc(CC)n(Cc2ccnc(C(F)(F)F)c2)n1 [Compound 75] | 100 | 100 | 100 | 100 | 100 | 100 | 90 | 80 | 40 | 100 | 100 | 100 | 85 | 100 | 5 | 5 | 60 | 65 | 20 | 40 | Plant response rating, Crabgrass, Large (crabgrass, large; [9]): 100; Plant response rating, Foxtail, Giant (foxtail, giant; [9]): 80; Plant response rating, Foxtail, Giant (foxtail, giant; [11]): 100; Plant response rating (scale of 0 to 100), Wheat (wheat [4]): 0; Plant response rating (scale of 0 to 100), Galium (galium; Postemergence): 50; Galium plant response rating (galium; Postemergence, 31 g ai/ha): 60; Plant response rating (scale of 0 to 100), Corn (corn; Postemergence): 0; Corn plant response rating (corn; Postemergence, 31 g ai/ha): 5
CCc1cc(C(=O)NC2CC2)nn1Cc1ccnc(C(F)(F)F)c1 [Compound 76] | 100 | 100 | 100 | 70 | 100 | 100 | 90 | 80 | 20 | 100 | 100 | 100 | 100 | 100 | 5 | 5 | 75 | 90 | 10 | 20 | Plant response rating (scale of 0 to 100), Crabgrass, Large (crabgrass, large; Preemergence): 100; Plant response rating (scale of 0 to 100), Foxtail, Giant (foxtail, giant; Preemergence): 100; Plant response rating, Foxtail, Giant (foxtail, giant; [11]): 100; Plant response rating (scale of 0 to 100 where 0 is no effect and 100 is complete control), Wheat (wheat [4]): 0; Plant response rating, Wheat (wheat [4]; [15]): 5; Plant response rating (scale of 0 to 100 where 0 is no effect and 100 is complete control), Galium (galium; Postemergence, 31 g ai/ha): 70; Plant response rating, Galium (galium; [16]): 90; Plant response rating (scale of 0 to 100 where 0 is no effect and 100 is complete control), Corn (corn; Postemergence, 31 g ai/ha): 5
CCONC(=O)c1cc(CC)n(Cc2ccnc(C(F)(F)F)c2)n1 [Compound 77] | 100 | 100 | 90 | 100 | 100 | 100 | 50 | 40 | 0 | 85 | 100 | 100 | 80 | 100 | 5 | 5 | 15 | 20 | 5 | 10 | Plant response rating, Crabgrass, Large (crabgrass, large; [9]): 60; Plant response rating, Foxtail, Giant (foxtail, giant; [9]): 20; Plant response rating, Foxtail, Giant (foxtail, giant; [11]): 85; Plant response rating (scale of 0 to 100), Wheat (wheat [4]): 0; Plant response rating (scale of 0 to 100 where 0 is no effect and 100 is complete control), Wheat (wheat [4]): 0; Plant response rating (scale of 0 to 100), Galium (galium; Postemergence): 5; Plant response rating (scale of 0 to 100 where 0 is no effect and 100 is complete control), Galium (galium; Postemergence, 31 g ai/ha): 5; Plant response rating (scale of 0 to 100), Corn (corn; Postemergence): 0; Plant response rating (scale of 0 to 100 where 0 is no effect and 100 is complete control), Corn (corn; Postemergence, 31 g ai/ha): 0
CCc1cc(-c2ccc(C(F)(F)F)cc2)nn1Cc1ccnc(C(F)(F)F)c1 [Compound 110] |  | 100 | 100 | 100 | 100 | 100 | 90 | 80 | 30 |  |  | 100 |  | 100 | 5 | 5 | 60 | 90 | 15 | 25 | Pigweed plant response rating (pigweed [1]; preemergence, 500 g ai/ha, visual injury after approx. 10 days, 0 to 100 scale (0 no effect, 100 complete control)): 100; Plant response rating (scale of 0 to 100), Crabgrass, Large (crabgrass, large; Preemergence): 100; Crabgrass, Large plant response rating (crabgrass, large; [17]): 95; Crabgrass, Large plant response rating (crabgrass, large; [18]): 98; Plant response rating (scale of 0 to 100), Foxtail, Giant (foxtail, giant; Preemergence): 100; Foxtail, Giant plant response rating (foxtail, giant; [17]): 98; Foxtail, Giant plant response rating (foxtail, giant; [18]): 98; Plant response rating (scale of 0 to 100 where 0 is no effect and 100 is complete control), Wheat (wheat [4]): 5; Plant response rating, Wheat (wheat [4]; [15]): 5; Plant response rating (scale of 0 to 100 where 0 is no effect and 100 is complete control), Galium (galium; Postemergence, 31 g ai/ha): 60; Plant response rating, Corn (corn; [16]): 25
